Experimental data taken from patent publication US20220226340A1, “CASEIN KINASE 1 INHIBITORS FOR USE IN THE TREATMENT OF DISEASES RELATED TO DUX4 EXPRESSION SUCH AS MUSCULAR DYSTROPHY AND CANCER” (Facio Intellectual Property B.V., priority 2019, published 2022).
Where two headings read alike, the source gives them in different places.

How the values were obtained:
DUX4 = experiment: high-content immunocytochemistry assay of endogenous DUX4 expression in differentiating primary FSHD myotubes; type: cell-based, human; details: for EC50: Homo sapiens, Myotube
Text: (§1) A quantitative assay readout was developed based on script-based image analysis. […] To analyse the images, an automated script was developed, enabling the detection of nuclei, myotube borders and DUX4 signals, with the script also detecting artefacts to reduce false positive signals. The script enabled multiple validated readouts including the number of DUX4 positive nuclei and nuclei clusters, the fusion index, myotube area, myotube width and myotube skeleton length (see FIG. 2). Additionally, the total nuclei count was included as a measure of cell loss or compound toxicity.
A compound library containing approximately 5000 annotated compounds was screened in the high-content assay. For this purpose, primary myoblasts were seeded in 384 well plates after which the growth medium was replaced with differentiation medium. After 3 days of differentiation, cells were treated with library compounds (in duplicate on different screening plates) for 15 h, after which they were fixed and stained with antibodies against DUX4, antibodies against myosin heavy chain (MHC), and with DAPI (4′,6-diamidino-2-phenylindole). Script-based analysis provided readouts for DUX4 expression (count of DUX4-positive nuclei or DUX4 intensity) and for potential toxicity (fusion index and nuclei count).
Compounds were incubated with primary FSHD cells for 15 hours, as indicated by the arrow in FIG. 4A.
(§2) Compounds are administered either 15 h before fixation, resembling the original screening protocol, or 72 h before fixation (grey arrow). In the latter case, compounds are present during the whole differentiation process.

CK1α = CK1α (Homo sapiens, UniProt P48729); experiment: CK1α inhibition IC50; type: biochemical
CK1δ = CK1δ (Homo sapiens, UniProt P48730); experiment: CK1δ inhibition IC50; type: biochemical
p38α = p38α (Homo sapiens, UniProt Q16539); experiment: p38α inhibition IC50; type: biochemical
CK1ε = CK1ε (Homo sapiens, UniProt P49674); experiment: CK1ε inhibition IC50; type: biochemical; details: read-out: CK1 e IC50
primary FSHD cells = experiment: fusion index (myotube fusion) readout of the high-content assay in primary FSHD cells; type: cell-based, human; details: 72 h treatment, compound present during whole differentiation
Text: as §1, §2

[1] = 72 h, Table 4, 72 h treatment protocol, read-out: DUX4 EC50
[2] = 72 h, Table 6, 72 h treatment protocol, read-out: DUX4 EC50
[3] = Table 7, p38 compounds, read-out: IC50 CK1a

p38α, sequence (Q16539 whole entry): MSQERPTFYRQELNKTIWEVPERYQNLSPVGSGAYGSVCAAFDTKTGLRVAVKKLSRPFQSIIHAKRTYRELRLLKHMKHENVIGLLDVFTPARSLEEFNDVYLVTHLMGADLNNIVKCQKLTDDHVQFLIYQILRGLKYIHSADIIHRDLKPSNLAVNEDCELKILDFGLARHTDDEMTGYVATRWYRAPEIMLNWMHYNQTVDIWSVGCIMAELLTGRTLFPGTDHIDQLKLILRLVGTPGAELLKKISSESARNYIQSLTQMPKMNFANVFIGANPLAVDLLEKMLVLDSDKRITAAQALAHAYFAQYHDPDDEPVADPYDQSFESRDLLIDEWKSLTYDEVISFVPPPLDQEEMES
CK1α, sequence (P48729 whole entry): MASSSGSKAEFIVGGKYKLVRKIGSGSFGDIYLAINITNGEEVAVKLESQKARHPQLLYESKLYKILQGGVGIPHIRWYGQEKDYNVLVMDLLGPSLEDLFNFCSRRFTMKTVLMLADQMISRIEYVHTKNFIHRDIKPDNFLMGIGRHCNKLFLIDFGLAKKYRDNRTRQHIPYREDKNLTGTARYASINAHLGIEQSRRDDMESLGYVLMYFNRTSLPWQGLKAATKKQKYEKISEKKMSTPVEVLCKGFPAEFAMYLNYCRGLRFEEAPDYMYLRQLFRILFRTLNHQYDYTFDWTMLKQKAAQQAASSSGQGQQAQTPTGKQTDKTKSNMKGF
CK1δ, sequence (P48730 whole entry): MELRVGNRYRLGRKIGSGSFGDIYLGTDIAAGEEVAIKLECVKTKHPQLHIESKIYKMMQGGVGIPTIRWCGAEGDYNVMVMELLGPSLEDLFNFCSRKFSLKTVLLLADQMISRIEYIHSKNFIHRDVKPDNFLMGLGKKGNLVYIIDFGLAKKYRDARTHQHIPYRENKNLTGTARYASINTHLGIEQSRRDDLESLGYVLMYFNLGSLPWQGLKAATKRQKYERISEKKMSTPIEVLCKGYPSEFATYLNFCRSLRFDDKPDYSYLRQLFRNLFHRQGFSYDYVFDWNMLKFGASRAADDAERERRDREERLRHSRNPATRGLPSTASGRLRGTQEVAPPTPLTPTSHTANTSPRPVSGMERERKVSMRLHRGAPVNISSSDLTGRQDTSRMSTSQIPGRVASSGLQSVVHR
CK1ε, sequence (P49674 whole entry, the tested form may be a part): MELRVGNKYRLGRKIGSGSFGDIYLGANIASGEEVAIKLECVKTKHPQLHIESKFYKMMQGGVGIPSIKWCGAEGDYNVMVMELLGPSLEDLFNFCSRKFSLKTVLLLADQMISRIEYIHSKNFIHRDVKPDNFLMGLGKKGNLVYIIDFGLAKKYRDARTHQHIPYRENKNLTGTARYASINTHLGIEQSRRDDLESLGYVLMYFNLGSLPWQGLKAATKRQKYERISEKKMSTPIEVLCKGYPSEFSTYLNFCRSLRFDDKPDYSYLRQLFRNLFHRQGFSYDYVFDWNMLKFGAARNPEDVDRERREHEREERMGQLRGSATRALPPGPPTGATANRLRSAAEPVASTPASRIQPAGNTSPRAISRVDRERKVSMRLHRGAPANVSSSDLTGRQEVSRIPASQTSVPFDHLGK

SMILES | EC50 (DUX4; [1]) [nM] | EC50 (DUX4; [2]) [nM] | IC50 (CK1α; Table 4, read-out: CK1 a IC50) [nM] | IC50 (CK1α; Table 6, read-out: IC50 CK1α) [nM] | IC50 (CK1δ; Table 4, read-out: CK1 d IC50) [nM] | IC50 (CK1δ; Table 6, read-out: IC50 CK1δ) [nM] | IC50 (p38α; Table 4, read-out: p38a IC50) [nM] | IC50 (p38α; Table 6, read-out: IC50 p38α) [nM] | IC50 (CK1α; [3]) [nM] | also measured
Cn1cc(-c2ccnc(N)n2)c(-c2ccc(F)cc2)n1 [Nr. 18] | 8200 | 8200 | 636 | 636 | 46.5 | 46 | 312 | 312 |  | 
Cc1cc(-c2cn(C)nc2-c2ccc(F)cc2)ccn1 [Nr. 19] | 4900 | 4900 | 4020 | 4020 | 80.7 | 81 | 449 | 449 |  | 
Fc1ccc(-c2nn(CC(F)(F)F)cc2-c2ccnc3[nH]ccc23)cc1 [Nr. 20] | 2200 | 2200 | 186 | 186 | 55.5 | 55 | 50.3 | 50 |  | 
Fc1ccc(-c2nc3ccc(N4CCNC5(CC5)C4)nn3c2-c2ccncc2)cc1 [Nr. 21] | 100 | 100 | 61.4 | 61 | 58.5 | 58 | 28.9 | 29 |  | 
Fc1ccc(-c2nc3ccc(N4CCNCC4)nn3c2-c2ccnnc2)cc1 [Nr. 22] | 1100 | 1100 | 194 | 194 | 57.7 | 58 | 411 | 411 |  | 
Fc1ccc(-c2nc3ccc(N4CCOCC4)nn3c2-c2ccncc2)cc1 [Nr. 23] | 2400 | 2400 | > 10000 | > 10000 | 2090 | 2090 | 1250 | 1250 |  | 
Fc1ccc(-c2nc3sc(N4CCNCC4)nn3c2-c2ccncc2)cc1 [Nr. 24] | 480 | 480 | 331 | 331 | 55.7 | 58 | 21.7 | 22 |  | 
Nc1nccc(-c2c(-c3ccc(F)cc3)ncn2C2CCCCC2)n1 [PF-670462, reference compound] | 760 | 760 |  |  |  |  | 32.4 |  |  | effect on DUX4 (DUX4; 72 h treatment): repress DUX4; IC50 (p38α; Table 3, read-out: p38a IC50): 32.4 nM
Nc1nccc(-c2c(-c3ccc(F)cc3)ncn2C2CCN(Cc3ccon3)CC2)n1 [PF-5006739, reference compound] | 620 | 620 |  |  | 19.8 |  | 74.3 |  |  | IC50 (CK1ε; Table 3): 26.8 nM; IC50 (CK1ε; Table 4): 26.8 nM; IC50 (CK1δ; Table 3, read-out: CK1 d IC50): 19.8 nM; IC50 (p38α; Table 3, read-out: p38a IC50): 74.3 nM
CNC(=O)c1ccc(C)c(-n2c(C)cc(OCc3ccc(F)cc3F)c(Br)c2=O)c1 [PH797804, reference compound] |  |  |  |  |  |  |  |  | > 10000 | 
Cn1c(=O)c(Oc2ccc(F)cc2F)cc2cnc(NC(CCO)CCO)nc21 [Pamapimod, reference compound] |  |  |  |  |  |  |  |  | > 10000 | 
OCCC#Cc1nc(-c2ccc(F)cc2)c(-c2ccncc2)n1CCCc1ccccc1 [RWJ 67657, reference compound] | 780 | 780 | 1830 | 1830 | 115 | 115 | 15.9 | 16 |  | 
Cc1cc(F)ccc1-c1nc(NC(CO)CO)nc2c1ccc(=O)n2-c1c(F)cccc1F [SB-681323, reference compound] |  |  |  |  |  |  |  |  | > 10000 | effect on fusion index / myotube fusion (primary FSHD cells): inhibited the fusion index; IC50 (p38α; Table 7, p38 compounds, read-out: IC50 p38): 11 nM
C[C@@H]1CN(Cc2ccc(F)cc2)[C@@H](C)CN1C(=O)c1cc2c(C(=O)C(=O)N(C)C)cn(C)c2cc1Cl [SCIO469, reference compound] |  |  |  |  |  |  |  |  | > 10000 | 
Fc1cccc(-n2cnc3c(NCc4nc5ccc(F)c(F)c5[nH]4)nc(N4CCOCC4)nc32)c1 [SR-3029, reference compound] |  |  |  |  |  |  |  |  |  | EC50 (DUX4; 15 h, read-out: DUX4 EC50): 50 nM; EC50 (DUX4; 15 h, read-out: EC50 for DUX4 repression): 50 to 120 nM; IC50 (p38α; Table 3, read-out: p38a IC50): > 1000 nM
NC(=O)c1ccc(N(C(N)=O)c2c(F)cccc2F)nc1-c1ccc(F)cc1F [VX702, 2-(2,4-difluorophenyl)-6-(1-(2,6-difluoropheny)ureido)nicotinamide, reference compound] |  |  |  |  |  |  |  |  | > 10000 | 
Cc1ccc(-n2nc(C(C)(C)C)cc2NC(=O)NCc2cc(F)ccc2Oc2ccc3c(cnn3CCO)c2)cc1 [pexmetinib, reference compound] |  |  |  |  |  |  |  |  | > 10000 | 
